In PubChem BioAssay (NCI):
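Compound exposure: 48 hours, 5 concentrations, 96-well plates. Here, GI50 denotes the concentration required for 50% inhibition of growth. TGI: total growth inhibition.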

Tests used:
Experiment in all cases: DTP human tumour cell line panel, 48 h
SNB-75 CNS = system: SNB-75 CNS
SW-620 colon = system: SW-620 colon
MDA-MB-435 = system: MDA-MB-435
MDA-MB-231 breast = system: MDA-MB-231 breast
A549 NSCLC = system: A549 NSCLC
UACC-62 melanoma = system: UACC-62 melanoma
MALME-3M melanoma = system: MALME-3M melanoma
RPMI-8226 leukemia = system: RPMI-8226 leukemia
SK-MEL-28 melanoma = system: SK-MEL-28 melanoma
SK-MEL-5 melanoma = system: SK-MEL-5 melanoma
TK-10 renal = system: TK-10 renal
UACC-257 melanoma = system: UACC-257 melanoma
HCT-116 colon = system: HCT-116 colon
CCRF-CEM leukemia = system: CCRF-CEM leukemia
SR leukemia = system: SR leukemia
U251 CNS = system: U251 CNS
HL-60(TB) leukemia = system: HL-60(TB) leukemia
T-47D breast = system: T-47D breast
SF-539 CNS = system: SF-539 CNS
NCI-H460 lung = system: NCI-H460 lung
SK-OV-3 ovarian = system: SK-OV-3 ovarian
HT29 colon = system: HT29 colon
COLO 205 colon = system: COLO 205 colon
NCI-H23 lung = system: NCI-H23 lung
HOP-62 NSCLC = system: HOP-62 NSCLC
MOLT-4 leukemia = system: MOLT-4 leukemia
SF-268 CNS = system: SF-268 CNS
786-0 renal = system: 786-0 renal
ACHN renal = system: ACHN renal
OVCAR-8 ovarian = system: OVCAR-8 ovarian
UO-31 renal = system: UO-31 renal
OVCAR-3 ovarian = system: OVCAR-3 ovarian
HCT-15 colon = system: HCT-15 colon
M14 melanoma = system: M14 melanoma
SK-MEL-2 melanoma = system: SK-MEL-2 melanoma
HCC-2998 colon = system: HCC-2998 colon
MCF7 breast = system: MCF7 breast
KM12 colon = system: KM12 colon
IGROV1 ovarian = system: IGROV1 ovarian
DU-145 prostate = system: DU-145 prostate
A498 renal = system: A498 renal
OVCAR-5 ovarian = system: OVCAR-5 ovarian
CAKI-1 renal = system: CAKI-1 renal
NCI-H226 lung = system: NCI-H226 lung
PC-3 prostate = system: PC-3 prostate
NCI-H522 lung = system: NCI-H522 lung
K-562 leukemia = system: K-562 leukemia
BT-549 breast = system: BT-549 breast
SN12C renal = system: SN12C renal
SF-295 CNS = system: SF-295 CNS
HOP-92 NSCLC = system: HOP-92 NSCLC
LOX IMVI melanoma = system: LOX IMVI melanoma
SNB-19 CNS = system: SNB-19 CNS
RXF 393 renal = system: RXF 393 renal
OVCAR-4 ovarian = system: OVCAR-4 ovarian
HS 578T breast = system: HS 578T breast
NCI/ADR-RES ovarian = system: NCI/ADR-RES ovarian
EKVX NSCLC = system: EKVX NSCLC

In the case of `C[C@@H](Nc1c(C#N)cnc2ccc(-c3cnc(Cl)c(NS(C)(=O)=O)c3)cc12)c1ccccc1`, the GI50 (SNB-75 CNS) was under 35.3 nM, the TGI (SNB-75 CNS) was 701 nM and the GI50 (SW-620 colon) was 343 nM. It also gave a TGI (SW-620 colon) of 12100 nM, a GI50 (MDA-MB-435) of 495 nM and a TGI (MDA-MB-435) of 11400 nM. For the same molecule, the GI50 (MDA-MB-231 breast) was 594 nM, the TGI (MDA-MB-231 breast) was 16600 nM and the GI50 (A549 NSCLC) was 492 nM. The TGI (A549 NSCLC) was 6470 nM, the GI50 (UACC-62 melanoma) was 206 nM and the TGI (UACC-62 melanoma) was 2030 nM. It also gave a GI50 (MALME-3M melanoma) of 166 nM, a TGI (MALME-3M melanoma) of 1820 nM and a GI50 (RPMI-8226 leukemia) of 121 nM. For the same molecule, the TGI (RPMI-8226 leukemia) was 582 nM, the GI50 (SK-MEL-28 melanoma) was 346 nM and the TGI (SK-MEL-28 melanoma) was 11200 nM. The GI50 (SK-MEL-5 melanoma) was 138 nM, the TGI (SK-MEL-5 melanoma) was 283 nM and the GI50 (TK-10 renal) was 184 nM. For the same molecule, the TGI (TK-10 renal) was 1880 nM, the GI50 (UACC-257 melanoma) was 495 nM and the TGI (UACC-257 melanoma) was 7050 nM. The GI50 (HCT-116 colon) was 124 nM, the TGI (HCT-116 colon) was 4830 nM and the GI50 (CCRF-CEM leukemia) was 178 nM. The TGI (CCRF-CEM leukemia) was over 21400 nM, the GI50 (SR leukemia) was 206 nM and the TGI (SR leukemia) was 6190 nM. For the same molecule, the GI50 (U251 CNS) was 335 nM, the TGI (U251 CNS) was 13400 nM and the GI50 (HL-60(TB) leukemia) was 222 nM. The TGI (HL-60(TB) leukemia) was 6480 nM, the GI50 (T-47D breast) was 112 nM and the TGI (T-47D breast) was 3880 nM. The GI50 (SF-539 CNS) was 372 nM, the TGI (SF-539 CNS) was 4080 nM and the GI50 (NCI-H460 lung) was 357 nM. The TGI (NCI-H460 lung) was 12000 nM, the GI50 (SK-OV-3 ovarian) was 431 nM and the TGI (SK-OV-3 ovarian) was 3180 nM. For the same molecule, the GI50 (HT29 colon) was 351 nM, the TGI (HT29 colon) was 12900 nM and the GI50 (COLO 205 colon) was 340 nM. The TGI (COLO 205 colon) was 2240 nM, the GI50 (NCI-H23 lung) was 233 nM and the TGI (NCI-H23 lung) was 5840 nM. The GI50 (HOP-62 NSCLC) was 326 nM, the TGI (HOP-62 NSCLC) was 5120 nM and the GI50 (MOLT-4 leukemia) was 144 nM. For the same molecule, the TGI (MOLT-4 leukemia) was 1810 nM, the GI50 (SF-268 CNS) was 275 nM and the TGI (SF-268 CNS) was 7330 nM. The GI50 (786-0 renal) was 365 nM, the TGI (786-0 renal) was over 100000 nM and the GI50 (ACHN renal) was 540 nM. The TGI (ACHN renal) was 44100 nM, the GI50 (OVCAR-8 ovarian) was 559 nM and the TGI (OVCAR-8 ovarian) was over 36600 nM. For the same molecule, the GI50 (UO-31 renal) was 256 nM, the TGI (UO-31 renal) was 9300 nM and the GI50 (OVCAR-3 ovarian) was 260 nM. The TGI (OVCAR-3 ovarian) was 3820 nM, the GI50 (HCT-15 colon) was 303 nM and the TGI (HCT-15 colon) was 11500 nM. For the same molecule, the GI50 (M14 melanoma) was 442 nM, the TGI (M14 melanoma) was 12500 nM and the GI50 (SK-MEL-2 melanoma) was 249 nM. For the same molecule, the TGI (SK-MEL-2 melanoma) was 1590 nM, the GI50 (HCC-2998 colon) was 515 nM and the TGI (HCC-2998 colon) was 8730 nM. For the same molecule, the GI50 (MCF7 breast) was 41.7 nM, the TGI (MCF7 breast) was 4080 nM and the GI50 (KM12 colon) was 493 nM. For the same molecule, the TGI (KM12 colon) was 11300 nM, the GI50 (IGROV1 ovarian) was 181 nM and the TGI (IGROV1 ovarian) was 1010 nM. The GI50 (DU-145 prostate) was 380 nM, the TGI (DU-145 prostate) was 11700 nM and the GI50 (A498 renal) was 207 nM. The TGI (A498 renal) was 778 nM, the GI50 (OVCAR-5 ovarian) was 544 nM and the TGI (OVCAR-5 ovarian) was 19200 nM. It also gave a GI50 (CAKI-1 renal) of 241 nM, a TGI (CAKI-1 renal) of 3980 nM and a GI50 (NCI-H226 lung) of 676 nM. It also gave a TGI (NCI-H226 lung) of 18200 nM, a GI50 (PC-3 prostate) of 259 nM and a TGI (PC-3 prostate) of 7970 nM. It also gave a GI50 (NCI-H522 lung) of 440 nM, a TGI (NCI-H522 lung) of 11500 nM and a GI50 (K-562 leukemia) of 264 nM. The TGI (K-562 leukemia) was over 100000 nM, the GI50 (BT-549 breast) was 146 nM and the TGI (BT-549 breast) was 2560 nM. For the same molecule, the GI50 (SN12C renal) was 322 nM, the TGI (SN12C renal) was over 100000 nM and the GI50 (SF-295 CNS) was 252 nM. It also gave a TGI (SF-295 CNS) of 2290 nM, a GI50 (HOP-92 NSCLC) of 51.5 nM and a TGI (HOP-92 NSCLC) of 636 nM. The GI50 (LOX IMVI melanoma) was 275 nM, the TGI (LOX IMVI melanoma) was 1680 nM and the GI50 (SNB-19 CNS) was 500 nM. It also gave a TGI (SNB-19 CNS) of 12100 nM, a GI50 (RXF 393 renal) of 158 nM and a TGI (RXF 393 renal) of 877 nM. It also gave a GI50 (OVCAR-4 ovarian) of 450 nM, a TGI (OVCAR-4 ovarian) of 15400 nM and a GI50 (HS 578T breast) of 181 nM. It also gave a TGI (HS 578T breast) of 1290 nM, a GI50 (NCI/ADR-RES ovarian) of 1610 nM and a TGI (NCI/ADR-RES ovarian) of 32100 nM. For the same molecule, the GI50 (EKVX NSCLC) was 431 nM and the TGI (EKVX NSCLC) was 5350 nM.
